Type in all cases: cell-based
Experiment [1] concerns rat neonatal cardiac fibroblasts. The experiment can be described thus: Rat cardiac neonatal fibroblast proliferation, high content imaging. The note with it: 10^−6 M, 24 h, three independent experiments in triplicate. From the text: (§1) Each bar corresponds to the mean ± SEM obtained from three independent experiments conducted in triplicate.
Neonatal cardiac rat fibroblasts, endogenously expressing UT ([82]), were obtained from 1–3-day-old Sprague-Dawley pups as previously reported ([83]). Briefly, hearts obtained from neonatal rats were enzyme-digested and after centrifugation, cells were preplated to separate cardiomyocytes from fibroblasts. As reported, the adherent nonmyocyte fractions correspond predominantly to fibroblasts while the supernatants largely contain the cardiomyocytes. After several washes, attached fibroblasts were trypsinized and then cultured at 37 °C in 96-well plate (6000 cells per well) in low glucose-DMEM supplemented with 7% FBS, 100 units/ml of penicillin, and 100 μg/ml of streptomycin. After 48 h, cells were washed twice with low glucose-DMEM, and starved for 12 h in this medium. […] Cells are incubated with primary anti-smooth muscle α-actin antibody (1/500) in 10% horse serum/PBS overnight at 4 °C and later with secondary anti-rabbit Alexa Fluor 488 (1/1000) for 1 h at RT. Cell staining was performed using cell mask (1 μg mL^−1) in PBS for 30 min at room temperature and with Hoechst dye in PBS (1 μg/ml) for 10 min. Analysis was performed on an Opera Phoenix High Content Imaging System with a 20× water objective.

For a further experiment, the system named is CHO-K1 cells. Nature of the experiment: ERK1/2 phosphorylation, western blot, CHO-K1 cells not expressing hUT. The settings on record: CHO-K1, 5 min; hUII 10^−7 M, pepducins 10^−5 M; n = 3. In general terms: Immunoblotting shows a protein as a band on a membrane.
The next experiment deals with HEK 293-hUT cells. The experiment can be described thus: Cell proliferation, MTT assay and flow cytometry, HEK 293-hUT cells. The settings on record: 10^−6 M, three independent experiments in triplicate. Here is the method:
as §1
HEK 293-hUT cell proliferation was evaluated by flow cytometry using propidium iodide DNA staining. […] Next, cells were detached, fixed with cold 70% ethanol, and then stored at –20 °C for at least 2 h. Cells were centrifuged at 200 rpm for 10 min at 4 °C and washed at least once with cold PBS. Cells were then resuspended in Triton X-100 (0.1%) supplemented with propidium iodide (500 μg mL^−1), and 200 μg mL^−1 of DNAse-free RNAse A in PBS. Data, expressed as the mean ± SEM of at least three independent experiments, were acquired on a FACScan (BD Biosciences), and results were analyzed with the FlowJo v10 software. The proliferation index is defined as the total number of divisions divided by the number of cells that went into division.
For orientation: Tetrazolium assays rely on reduction of a dye to a coloured formazan, in cell work by metabolically active cells.

In experiment [2] the target is T1, hUT (Homo sapiens, UniProt Q9UKP6).
T1 sequence (Q9UKP6 1-389): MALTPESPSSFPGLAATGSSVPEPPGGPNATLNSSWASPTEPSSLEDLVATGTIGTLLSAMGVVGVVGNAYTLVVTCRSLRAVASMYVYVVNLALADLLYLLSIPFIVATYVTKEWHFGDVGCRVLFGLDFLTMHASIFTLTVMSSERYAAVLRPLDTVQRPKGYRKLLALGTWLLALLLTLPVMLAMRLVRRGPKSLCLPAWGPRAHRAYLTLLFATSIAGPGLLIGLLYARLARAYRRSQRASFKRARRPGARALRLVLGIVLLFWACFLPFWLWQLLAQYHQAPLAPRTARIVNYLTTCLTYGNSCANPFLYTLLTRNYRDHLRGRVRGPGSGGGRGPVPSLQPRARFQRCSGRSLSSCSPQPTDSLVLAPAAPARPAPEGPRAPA
The experiment can be described thus: G13 activation, BRET biosensor, HEK 293-hUT cells. Set-up: expressed in transfected cells. The settings on record: for EC50: HEK 293-hUT, BRET, mean ± SEM, n = 3–5, read-out: G13 activation pEC50 (converted). How it is done:
(§2) Figure 6 Signaling signature of hUT-pepducins following hUT receptor activation. […] Each curve represents mean ± SEM of at least three independent concentration-response experiments performed in triplicate.
(§3) HEK 293-hUT cells were grown in DMEM culture media supplemented with 10% foetal bovine serum, HEPES, sodium pyruvate, and G418 (200 μg mL^−1). Passages were performed when cells reached 80% of confluency. Cells were initially plated in 96-well plates at a density of 10,000 cells/well. The following day, the medium is replaced with DMEM culture media supplemented with 2.5% foetal bovine serum (FBS), and 12 h later, cells were transiently transfected with 25 ng/well of a Gq-polycistronic, 25 ng/well of a G12-polycistronic BRET sensor, 25 ng/well of a G13-polycistronic BRET sensor, 2.5 ng/well pIRESB RLucII-ERK-NLS-GFP BRET sensor, 2.5 ng β-arrestin 1-polycistronic BRET sensor, or 2.5 ng β-arrestin 2-polycistronic BRET sensor using Lipofectamine2000 at a ratio of 3:1 (Lipofectamine/plasmid DNA) in serum-free Opti-MEM ([44], [81]). Sixteen hours posttransfection, medium was replaced with DMEM supplemented with 10% FBS, HEPES, sodium pyruvate and G418 (200 μg mL^−1) and cell growth was resumed for another 16 h. Cells were washed with 150 μl PBS solution supplemented with 0.1% of glucose and then incubated with 80 μl of this solution for 2 h. Then, to evaluate Gq and G12 activation, 10 μl of a 1/20 dilution (diluted before use) of coelenterazine 400A (stock at 1 mM in ethanol) in Kreb's buffer and 10 μl of the 10× appropriate concentration of peptide were added, and the luminescence was evaluated with an Infinite M1000 PRO. […] Readings were performed after 5 min using an Infinite M1000 PRO. Filters were set at 410 nm and 515 nm for detecting the Renilla luciferase II (RlucII, donor) and green fluorescent protein 10 (GFP10, acceptor) light emission, respectively. BRET ratio was determined by calculating the ratio of the light emitted by GFP10 over the light emitted by the RlucII.
In general terms: BRET reads energy transfer from a luciferase to a nearby fluorophore.

The target of experiment [3] is T1, hUT. Nature of the experiment: EGFR transactivation (EGFR-GFP internalization, confocal microscopy), HEK 293-hUT cells. Set-up: expressed in transfected cells. The note with it: 30 min; for EGFR internalization: 10^−6 M; for EGFR transactivation after YM254890 (Gq inhibitor): YM254890 100 nM 1 h pretreatment, peptide 10^−6 M. How it is done:
EGFR internalization, following hUT stimulation with various ligands for 30 min, was visualized using confocal microscopy. The images shown are from representative experiments repeated at least three times.
HEK 293 and HEK 293-hUT cells, transiently transfected with cDNA encoding fluorescently labeled EGFR (EGFR-GFP) (2 μg), were plated onto 35-mm glass-bottomed culture dishes (MatTek Corp). Following stimulation, cells were washed once with PBS and fixed in 4% paraformaldehyde for 15 min. To study the involvement of Gq in EGFR internalization, cells were treated with YM254890 (100 nM) for 1h prior peptide treatments. […] EGFR-GFP internalization was visualized using a combination of excitation (488 nm) and emission filters (499 and 520 nm).

The target in experiment [4] is T1, hUT. The experiment can be described thus: β-arrestin 1 conformational change, BRET biosensor, HEK 293-hUT cells. Set-up: expressed in transfected cells. The note with it: for Emax: percentage of the activation induced by hUII (10^−6 M), n = 3–5. Here is the method:
as §2, §3

Experiment [5] concerns the target T1, hUT. Nature of the experiment: Gi activation, BRET biosensor, HEK 293-hUT cells. Set-up: expressed in transfected cells. The note with it: for EC50: HEK 293-hUT, BRET, mean ± SEM, n = 3–5, read-out: Gi activation pEC50 (converted).

This note sets out measurements from publication PMC8424217 (The Journal of Biological Chemistry, 2021).

A word on the Emax: it is the greatest response seen or fitted, relative to the assay's reference.

Peptide text beside a SMILES is read from it. * marks the point of attachment. Palmitoyl = CCCCCCCCCCCCCCCC(=O)*

Consider `CCCCCCCCCCCCCCCC(=O)N[C@@H](Cc1c[nH]c2ccccc12)C(=O)N[C@@H](CC(C)C)C(=O)N[C@@H](CO)C(=O)N[C@@H](CCC(N)=O)C(=O)N[C@@H](CCCNC(=N)N)C(=O)N[C@@H](C)C(=O)N[C@@H](CO)C(=O)N[C@@H](Cc1ccccc1)C(=O)N[C@@H](CCCCN)C(=O)N[C@@H](CCCNC(=N)N)C(=O)N[C@@H](C)C(=O)N[C@@H](CCCNC(=N)N)C(=O)N[C@@H](CCCNC(=N)N)C(N)=O` [[Trp^1, Leu^2]hUT-Pep3] (Palmitoyl-WLSQRASFKRARR-NH2), for which the “rat neonatal cardiac fibroblast proliferation” value in experiment [1] is “proliferative action in rat neonatal cardiac fibroblasts similar to what was observed with hUII”. The “ERK1/2 phosphorylation in absence of receptor” value (from here on “ERK1/2 phosphorylation”) in the experiment on CHO-K1 cells is reported as “neither hUII nor hUT-derived pepducins were able to induce ERK1/2 phosphorylation”. The “HEK 293-hUT cell proliferation” value with HEK 293-hUT cells was “able to induce HEK 293-hUT cell proliferation”. Moreover, the Emax is 185 ± 11% at hUT [2]; ~18% on hUT [4] (15 min at RT, mean ± SEM); 97 ± 2% at hUT [5]. For the same molecule, the EC50 is 309 nM at hUT [2]; 8.32 nM at hUT [4] (15 min at RT, mean ± SEM, n = 3–5, read-out: β-arrestin 1 pEC50 (converted)); 0.0407 nM on hUT [5]. The EGFR internalization result on hUT [3] is given as “significant internalization of EGFR-GFP”. In addition, the “EGFR transactivation after YM254890 (Gq inhibitor)” value at hUT [3] is listed as “almost completely abolished”.

Turning to `CC(C)[C@H](NC(=O)[C@@H]1CSSC[C@H](NC(=O)[C@H](CC(=O)O)NC(=O)[C@@H]2CCCN2C(=O)[C@@H](NC(=O)[C@@H](N)CCC(=O)O)[C@@H](C)O)C(=O)N[C@@H](Cc2ccccc2)C(=O)N[C@@H](Cc2c[nH]c3ccccc23)C(=O)N[C@@H](CCCCN)C(=O)N[C@@H](Cc2ccc(O)cc2)C(=O)N1)C(=O)O` [hUII, urotensin II, reference compound], the “rat neonatal cardiac fibroblast proliferation” value in experiment [1] is reported as “proliferative action in rat neonatal cardiac fibroblasts similar to what was observed with hUII”. Moreover, the “ERK1/2 phosphorylation” value with CHO-K1 cells is recorded as “neither hUII nor hUT-derived pepducins were able to induce ERK1/2 phosphorylation”. Further, in the experiment on HEK 293-hUT cells, the “HEK 293-hUT cell proliferation” value is given as “able to induce HEK 293-hUT cell proliferation”. Besides, the figures for the Emax at 1 µM on hUT [2] and on hUT [5] were 106 ± 5% and 93 ± 2%, respectively. The EGFR internalization entry on hUT [3] was “resulted in EGFR internalization”. The same molecule showed an Emax on hUT [4] (15 min at RT, mean ± SEM) of 104 ± 4%.

On to `CCCCCCCCCCCCCCCC(=O)N[C@@H](CCCNC(=N)N)C(=O)N1CCC[C@H]1C(=O)N[C@@H](CC(C)C)C(=O)N[C@@H](CC(=O)O)C(=O)N[C@H](C(=O)N[C@H](C(=O)N[C@@H](CCC(N)=O)C(=O)N[C@@H](CCCNC(=N)N)C(=O)N1CCC[C@H]1C(=O)N[C@@H](CCCCN)C(=O)NCC(=O)N[C@@H](Cc1ccc(O)cc1)C(N)=O)C(C)C)[C@@H](C)O` [hUT-Pep2] (Palmitoyl-RPLDTVQRPKGY-NH2), for which the “rat neonatal cardiac fibroblast proliferation” value in experiment [1] was “proliferative action in rat neonatal cardiac fibroblasts similar to what was observed with hUII”. Moreover, the “ERK1/2 phosphorylation” value in the experiment on CHO-K1 cells is “neither hUII nor hUT-derived pepducins were able to induce ERK1/2 phosphorylation”. Besides, the “HEK 293-hUT cell proliferation” value in the experiment with HEK 293-hUT cells is recorded as “not hUT-Pep2 were able to induce HEK 293-hUT cell proliferation”. Besides, on hUT [2], the Emax stood at 154 ± 10% and the EC50 is 468 nM. Besides, on hUT [3], the EGFR internalization result is “significant internalization of EGFR-GFP” and the “EGFR transactivation after YM254890 (Gq inhibitor)” value is “almost completely abolished”. The “β-arrestin 1 activation (in words)” value on hUT [4] is “inactive”. At hUT [5], the Emax is 96 ± 2% and the EC50 was 0.0813 nM.
